Results taken from US20030125287A1, “Antisense oligonucleotides and methods to induce tumor cell death” (Hybridon, Inc., priority 2001, published 2003).
Entries after “also recorded” stand apart in the source; their conditions may differ. Like-named read-outs stand apart in the source and are kept apart here. Oligonucleotides are written 5' to 3', each unit as a sugar letter and its base; * is a phosphorothioate linkage, no mark a phosphodiester; rarer units and linkages stand in square brackets, end groups in braces. Plain capitals give the bases only. d = 2'-deoxy (DNA)

Assays:
caspase-3 = experiment: Caspase-3 activity assay in MSN cells; format: cell-based, human; details: MSN cells, 400 nM, 48 hours; for caspase-3 activity, Relative units/mg protein +/− SD: triplicate
Description: MSN cells were treated with lipofectin, 400 nM survivin antisense oligonucleotide 903, 904, or mismatched oligonucleotide 1132, for a 48 hour period. Cell pellets were washed twice in cold PBS and re-suspended in ice-cold hypotonic cell lysis buffer (25 mM HEPES, pH 7.5, 5 mM MgCl2, 5 mM EDTA, 5 mM DTT, 2 mM PMSF, 10 μg/ml pepstatin A, 10 μg/ml leupeptin). Re-suspended pellets were incubated on ice for 20 min, followed by brief sonication for two seconds. Lysates were centrifuged at 14,000 rpm for 20 minutes at 4° C. The supernatant was retained and the protein concentration analyzed by the Bio-Rad protein assay described above.
Supernatants were assayed in triplicate, with and without the caspase-3 inhibitor, Ac-DEVD-CHO, using black opaque, 96 well, flat bottom plates (Greiner Laboratories, USA Scientific Inc., Orlando, Fla.). 50-100 μg of the supernatant was incubated in caspase-3 assay buffer (100 mM HEPES, pH 7.5, 10% sucrose, 0.1% CHAPS and 10 mM DTT) with either 2 μl of DMSO or 2 μl of 2.5 mM Ac-DEVD-CHO (Pharmingen, San Diego, Calif.) so that the final concentration of the inhibitor was 50 μM in a final volume of 100 μl. It was then incubated at 30° C. for 30 minutes. Subsequently, 2 μl of the caspase-3 substrate 2.5 mM Ac-DEVD-AMC (Pharmingen, San Diego, Calif.) (final concentration 50 μM)) was added to each well. Plates were incubated at 30° ° C. for 60 minutes in the dark.
Fluorescence of the reaction was measured using a SPECTRAmax GEMINI spectrofluorometer using SOFTmax® PRO software (Molecular Devices, Sunnyvale, Calif.) at an excitation wavelength of 355 nm and an emission wavelength of 460 nm with a cutoff filter of 455 nm. The data is presented as the ratio of the mean relative fluorescence units/mg protein±SD.

XIAP [1] = details: MSN cells; 400 nM; 48 hours (FIG. 10A)
Description: MSN cells were treated with lipofectin or 400 nM survivin antisense oligonucleotides 900, 901, 903, 904, 905 and 906. Total protein was isolated 48 hours after treatment, and 100 μg of protein was loaded per lane. The blot was incubated with a monoclonal antibody against XIAP (1:1000; IgG1). Visualization was by enhanced chemiluminescence (ECL). […] The experiment was performed twice.
Total protein homogenates were prepared according to a previously described procedure (Albala et al. (1995) J. Neurochem. 64:2480-2490). Protein content was measured using the Bio-Rad detection system (Bio-Rad Laboratories, Hercules, Calif.). Equal amounts of protein were analyzed by SDS-PAGE on 10% gels (Laemmli (1970) Nature 227:680-685). The resolved polypeptides were electrophoretically transferred to nitrocellulose (Towbin et al. (1979) Proc. Natl. Acad. Sci. USA 76:4350-4354).
(§1) Survivin polyclonal antibody was purchased from R & D Systems, Inc. (Minneapolis, Minn.). […] A generic β-tubulin monoclonal antibody (TUB 2.1) was purchased from SIGMA (St. Louis, Mo.). The XIAP mAb was purchased from StressGen Biotechnologies Corp. (Victoria, Canada). The poly-ADP ribosyl polymerase (PARP) mAb was purchased from PharMingen/Transduction Laboratories (San Diego, Calif.).

PARP [2] = details: TC620 cells; 100 nM to 400 nM (FIG. 5B)
Description: 75 μg of total protein was loaded per lane. Following gel electrophoresis and transfer to nitrocellulose membrane, the blot was incubated with a PARP monoclonal antibody (1:500) and visualized by enhanced chemiluminescence.
as §1

PARP [3] = experiment: PARP cleavage immunoblot in MSN cells; format: cell-based, human
Description: To determine whether MSN cell death by survivin antisense oligonucleotides was mediated by caspase-3 activation, studies were conducted to examine whether PARP was cleaved following survivin antisense treatment. […] Since no PARP cleavage was detected, further tests were conducted to determine whether survivin antisense-treated cells have any active caspase-3.

survivin = experiment: Western blot of survivin protein in antisense oligonucleotide-treated TC620 cells; format: cell-based, human; details: for percentage of survivin protein over β-tubulin relative to lipofectin: 48 hours (FIG. 5A)
Description: Subconfluent TC620 oligodendroglioma cells were transfected with lipofectin or increasing concentrations of survivin antisense oligonucleotide 904 (25 nM to 400 nM). 75 µg of total protein was loaded per lane. Blots were cut at 32.9 kD and the bottom was incubated with a survivin polyclonal antibody (1:500), while the top was incubated with a β-tubulin monoclonal antibody (1:1000).
The antisense oligonucleotides were synthesized on solid support with an automated DNA synthesizer using β-cyanoethylphosphoramidite chemistry. In order to prevent rapid degradation of the antisense oligonucleotides by cellular nucleases, oxidation was carried out with Becauge sulfurizing agent to obtain phosphorothioate backbone modified oligonucleotides. After their synthesis, the oligonucleotides were released from the solid support, deprotected, purified by reverse-phase HPLC, desalted, filtered and lyophilized. The purity and sequence integrity of oligonucleotides was ascertained by capillary gel electrophoresis and MALDI-TOF mass spectral analysis and the concentrations measured at […]. Cells were grown in 100 mm dishes and oligonucleotide treatment was performed on subconfluent cultures in the presence of Lipofectin (GIBCO) according to the manufacturer. Forty-eight hours following treatment, total protein homogenates were isolated.
Ten micrograms of the fusion protein was incubated with the survivin antibody (1:500) at 4° C. for 2 hours to overnight prior to immunoblotting. […] Blots were cut at 32.9 kD, and the bottom part of the blots were incubated with the survivin antibody overnight at 4° C. and visualized by enhanced chemiluminescence (Enhanced Chemiluminescence, Amersham, Arlington Heights, Ill.) as previously described (Sharma et al. Cell. Motil. Cytoskeleton 27:234-247).

XIAP [4] = experiment: Western blot of XIAP protein in TC620 cells; format: cell-based, human; details: 48 hours (FIG. 10B)
Description: TC620 oligodendroglioma cells were transfected with lipofectin or increasing concentrations of survivin antisense oligonucleotide 904 (25 to 400 nM). Total protein was isolated after 48 hours of treatment and 75 μg of total protein was loaded per lane. The experiment was performed once.

| Substance | caspase-3 activity (caspase-3) | caspase-3 activity, Relative units/mg protein +/− SD (caspase-3) | fold change of XIAP protein over β-tubulin relative to lipofectin (XIAP [1]) | PARP cleavage (116 kD to 85 kD fragment), words (PARP [2]) | PARP cleavage, words (PARP [3]) | effect on survivin protein levels (survivin) | percentage of survivin protein over β-tubulin relative to lipofectin (survivin; 25 nM) | percentage of survivin protein over β-tubulin relative to lipofectin (survivin; 50 nM) | percentage of survivin protein over β-tubulin relative to lipofectin (survivin; 100 nM) | percentage of survivin protein over β-tubulin relative to lipofectin (survivin; 200 nM) | decrease in survivin protein abundance relative to lipofectin-treated cells (survivin; 400 nM (FIG. 5A)) | percentage of survivin protein over β-tubulin relative to lipofectin (survivin; 400 nM) | fold change of XIAP protein over β-tubulin relative to lipofectin (XIAP [4]; 25 nM) | fold change of XIAP protein over β-tubulin relative to lipofectin (XIAP [4]; 50 nM) | fold change of XIAP protein over β-tubulin relative to lipofectin (XIAP [4]; 100 nM) | fold change of XIAP protein over β-tubulin relative to lipofectin (XIAP [4]; 200 nM) | fold change of XIAP protein over β-tubulin relative to lipofectin (XIAP [4]; 400 nM) |
| --- | --- | --- | --- | --- | --- | --- | --- | --- | --- | --- | --- | --- | --- | --- | --- | --- | --- |
| d(GCACCTAGTCTCCCTGCACC) (DNA, all phosphorothioate, methylation of C not given here) [Oligo 1132, mismatched phosphorothioate control oligonucleotide, not complementary to survivin mRNA, reference compound] | no significant increase in caspase-3 activity | 30,961 ± 1681 Relative units/mg protein | – | – | – | – | – | – | – | – | – | – | – | – | – | – | – |
| d(GCTTCCCAGTCACATCCTGT) (antisense dG*dC*dT*dT*dC*dC*dC*dA*dG*dT*dC*dA*dC*dA*dT*dC*dC*dT*dG*dT) [Oligo 906] | – | – | 8.3 fold | – | – | – | – | – | – | – | – | – | – | – | – | – | – |
| d(TCTTGGCTCTTTCTCTGTCC) (antisense dT*dC*dT*dT*dG*dG*dC*dT*dC*dT*dT*dT*dC*dT*dC*dT*dG*dT*dC*dC) [Oligo 904, 20-mer phosphorothioate survivin antisense oligonucleotide, complementary to survivin mRNA 5248-5267] | no significant increase in caspase-3 activity; also recorded: did not activate caspase-3 | 33,532 ± 3732 Relative units/mg protein | – | dramatic decrease of the 116 kD PARP protein; also recorded: resulted in the cleavage of the 116 kD caspase-3 substrate PARP | did not activate caspase-3 or cleave the caspase-3 substrate, PARP | marked concentration-dependent reduction in survivin protein levels | 109.1% | 97.4% | 67.6% | 45.2% | 54% | 45.7% | 1.3 fold | 1.0 fold | 0.71 fold | 0.67 fold | 0.66 fold |
